Measured values published in patent publication US20030032813A1, “Rhodanine carboxylic acid derivatives for the treatment and prevention of metabolic bone disorders” (Angelika Esswein, Wolfgang Schaefer, and Konrad Honold, priority 1998, published 2003).

Tested on: adenylate cyclase
Test: assay for the capability of stimulating cyclic adenylate cyclase (cAMP formation)
Assay type: biochemical
From the text: Compounds of general formula (I) were investigated in a suitable assay for the capability of stimulating cyclic adenylate cyclase.

| SMILES | % cAMP (Test conc. 50 μM) |
| --- | --- |
| CC(C=CC1=C(C)CCCC1(C)C)=CC=C1SC(=S)N(CC(=O)O)C1=O [Example 46, 5-(3-Methyl-5-(2,6,6trimethyl-cyclohex-1-enyl)-penta-2,4-dienyliden]-4-oxo-2-thioxo-thiazolidin-3-yl-acetic acid] | 30% |
| O=C(O)CN1C(=O)C(=CC=CC=Cc2cc3ccccc3s2)SC1=S [Example 13, [5-(5-Benzo [b]thiophen-2-yl-penta-2,4-dienylidene)-4-oxo-2-thioxo-thiazolidin-3-yl]-acetic acid] | 10% |
| CC(C)(C)c1cc(C=C2SC(=S)N(CCC(=O)O)C2=O)cc(C(C)(C)C)c1O [Example 60, 3-[5-(3,5-Di-tert-butyl-4-hydroxy-benzylidene)-4-oxo-2-thioxo-thiazolidin-3-yl]-propionic acid] | 20% |
| CC(C=CC1=C(C)CCCC1(C)C)=C1SC(=S)N(CCC(=O)O)C1=O [Example 72, 3-5-[1-Methyl-3-(2,6,6-trimethyl-cyclohex-1-enyl)-allylidene]-4-oxo-2-thioxo-thiazolidin-3-yl-propionic acid] | 15% |
| CC(C)(C)c1cc(C=C2SC(=S)N(CC(=O)O)C2=O)ccc1O [Example 23, [5-(3-tert-Butyl-4-hydroxy-benzylidene)-4-oxo-2-thioxo-thiazolidin-3-yl]-acetic acid] | 8% |
| O=C(O)CN1C(=O)C(=CC=Cc2cc3ccccc3s2)SC1=S [Example 16, [5-(3-Benzo [b]thiophen-2-yl-allylidene)-4-oxo-2-thioxo-thiazoldin-3-yl]-acetic acid] | 8% |
| CC(C=CC1=C(C)CCCC1(C)C)=C1SC(=S)N(CC(=O)O)C1=O [Example 22, 5-[1-Methyl-3-[2,6,6-trimethyl-cyclohex-1-enyl)-allylidene]-4-oxo-2-thioxo-thiazolidin-3-yl-acetic acid] | 10% |
| CC(C)(C)c1cc(C=C2SC(=S)N(CC(=O)O)C2=O)cc(C(C)(C)C)c1O [Example 25, [5-(3,5-Di-tert-butyl-4-hydroxy-benzylidene)-4-oxo-2-thioxo-thiazolidin-3-yl]-acetic acid] | 40% |
| CC1=C(C=C2SC(=S)N(CCC(=O)O)C2=O)C(C)(C)CCC1 [Example 59, 3-(4-Oxo-2-thioxo-5-(2,6,6-trimetyl-cyclohex-1-enylmethylene)-thiazolidin-3-yl]-propionic acid] | 15% |
| CC(C)(C)c1cc(C=C2SC(=S)N(C(Cc3ccccc3)C(=O)O)C2=O)cc(C(C)(C)C)c1O (stereo not drawn) [Example 3, 2-[5-(3,5-Di-tert-butyl-4-hydroxy-benzylidene)-4-oxo-2-thioxo-thiazolidin-3-yl]-3-phenyl-propionic acid] | 8% |

Tested on: not given
Test: not given

| SMILES | melting point |
| --- | --- |
| COc1cc(C)c2c(c1C=C1SC(=S)N(CC(=O)O)C1=O)Oc1c(c(C)c(O)c3c1C(O)OC3=O)OC2=O (stereo not drawn) | > 260 °C |
| COc1ccc(COc2ccc(C=C3SC(=S)N(CC(=O)O)C3=O)cc2)cc1 | 172 to 173 °C |
| O=C(O)CCCCCN1C(=O)C(=Cc2cc(O)c(O)c(O)c2)SC1=S | 212 to 214 °C |
| COc1cccc(COc2ccc(C=C3SC(=S)N(CC(=O)O)C3=O)cc2)c1 | 191 to 193 °C |
| O=C(O)CN1C(=O)C(=Cc2ccc(OCc3ccc4c(c3)OCO4)cc2)SC1=S | 206 to 207 °C |
| O=C(O)CN1C(=O)C(=Cc2ccc3c(c2)CCO3)SC1=S | 246 to 247 °C |
| O=C(O)CCN1C(=O)C(=Cc2cccc3ccccc23)SC1=S | 159 to 161 °C |
| CN1C(=O)C(=Cc2cc(C(C)(C)C)c(O)c(C(C)(C)C)c2)SC1=S | > 240 °C |
| O=C(O)CN1C(=O)C(=CC2=CC=C(OCc3ccccc3)C(O)(O)C2)SC1=S | 178 to 180 °C |
| O=C(O)CCN1C(=O)C(=Cc2ccc3c(c2)OCO3)SC1=S | 174 to 176 °C |
| CCCCCc1ccc(C=C2SC(=S)N(CC(=O)O)C2=O)cc1 | 160 to 162 °C |
| O=C(O)CN1C(=O)C(=CCCc2ccccc2)SC1=S | 108 to 111 °C |
| CC(C=CC1=C(C)CCCC1(C)C)=CC=C1SC(=S)N(CC(=O)O)C1=O [Example 46, 5-(3-Methyl-5-(2,6,6trimethyl-cyclohex-1-enyl)-penta-2,4-dienyliden]-4-oxo-2-thioxo-thiazolidin-3-yl-acetic acid] | 153 to 155 °C |
| O=C(O)CN1C(=O)C(=Cc2ccc(OCc3ccccc3)c(OCc3ccccc3)c2)SC1=S | 187 to 188 °C |
| O=C(O)CN1C(=O)C(=CC=CC=Cc2cc3ccccc3s2)SC1=S [Example 13, [5-(5-Benzo [b]thiophen-2-yl-penta-2,4-dienylidene)-4-oxo-2-thioxo-thiazolidin-3-yl]-acetic acid] | > 240 °C |
| O=C(O)CN1C(=O)C(=CC2CCN(C(=O)OCc3ccccc3)CC2)SC1=S | 114 to 115 °C |
| CC(C)(C)c1cc(C=C2SC(=S)N(C(Cc3c[nH]c4ccccc34)C(=O)O)C2=O)cc(C(C)(C)C)c1O (stereo not drawn) | 140 °C (dec.) |
| CC(C)(C)c1cc(C=C2SC(=S)N(C(CCC(=O)O)C(=O)O)C2=O)cc(C(C)(C)C)c1O (stereo not drawn) | 130 °C (dec.) |
| O=C(O)CN1C(=O)C(=Cc2ccc(OCc3ccccc3)cc2)SC1=S | 205 to 206 °C |
| CC(C(=O)O)N1C(=O)C(=Cc2ccc(OCc3ccccc3)cc2)SC1=S (stereo not drawn) | 125 to 128 °C |

| SMILES | melting point |
| --- | --- |
| COC(=O)CN1C(=O)C(=Cc2cc(C(C)(C)C)c(O)c(C(C)(C)C)c2)SC1=S | 165 to 170 °C |
| CC(C)(C)c1cc(C=C2SC(=S)N(CCC(=O)O)C2=O)cc(C(C)(C)C)c1O [Example 60, 3-[5-(3,5-Di-tert-butyl-4-hydroxy-benzylidene)-4-oxo-2-thioxo-thiazolidin-3-yl]-propionic acid] | 218 to 219 °C |
| O=C(O)CN1C(=O)C(=Cc2ccc(O)c(C(=O)O)c2)SC1=S | > 260 °C |
| O=C(O)CN1C(=O)C(=Cc2cc(OCc3ccccc3)ccc2O)SC1=S | 130 to 133 °C |
| O=C(O)CN1C(=O)C(=Cc2cc(OCc3ccccc3)ccc2OCc2ccccc2)SC1=S | 196 to 198 °C |
| CC(C)(C)c1cc(C=C2SC(=S)N(CC(=O)O)C2=O)ccc1O [Example 23, [5-(3-tert-Butyl-4-hydroxy-benzylidene)-4-oxo-2-thioxo-thiazolidin-3-yl]-acetic acid] | > 240 °C |
| CC(=C1SC(=S)N(CC(=O)O)C1=O)c1cc(O)cc(O)c1 | 184 to 188 °C |
| O=C(O)CN1C(=O)C(=Cc2cc3ccccc3s2)SC1=S | 292 to 294 °C |
| CCCCN(CCCC)c1ccc(C=C2SC(=S)N(CC(=O)O)C2=O)cc1 | 186 to 188 °C |
| O=C(O)COc1ccc(CC=C2SC(=S)N(CC(=O)O)C2=O)cc1 | 111 to 120 °C (dec.) |
| O=C(O)CC(C(=O)O)N1C(=O)C(=Cc2cc3ccccc3s2)SC1=S (stereo not drawn) | 240 °C (dec.) |
| CC(C=CC1=C(C)CCCC1(C)C)=C1SC(=S)N(CC(=O)O)C1=O [Example 22, 5-[1-Methyl-3-[2,6,6-trimethyl-cyclohex-1-enyl)-allylidene]-4-oxo-2-thioxo-thiazolidin-3-yl-acetic acid] | 100 °C (dec.) |
| CC(C)(C)c1cc(C=C2SC(=S)N(C(CC(=O)O)C(=O)O)C2=O)cc(C(C)(C)C)c1O (stereo not drawn) | 240 °C (dec.) |
| O=C(O)CN1C(=O)C(=Cc2ccc(O)cc2)SC1=S | 230 to 232 °C |
| O=C(O)CCN1C(=O)C(=Cc2ccc(OCc3ccccc3)cc2)SC1=S | 188 to 191 °C |
| CC(C)(C)c1cc(C=C2SC(=S)N(CC(=O)O)C2=O)cc(C(C)(C)C)c1O [Example 25, [5-(3,5-Di-tert-butyl-4-hydroxy-benzylidene)-4-oxo-2-thioxo-thiazolidin-3-yl]-acetic acid] | 120 to 121 °C |
| O=C(O)CCC(C(=O)O)N1C(=O)C(=Cc2cc3ccccc3s2)SC1=S (stereo not drawn) | 220 to 221 °C |
| CC(=O)Nc1ccc2sc(C=C3SC(=S)N(CC(=O)O)C3=O)cc2c1 | > 240 °C |
| CC(C)(C)c1cc(C=C2SC(=S)N(C(Cc3ccccc3)C(=O)O)C2=O)cc(C(C)(C)C)c1O (stereo not drawn) [Example 3, 2-[5-(3,5-Di-tert-butyl-4-hydroxy-benzylidene)-4-oxo-2-thioxo-thiazolidin-3-yl]-3-phenyl-propionic acid] | 160 °C (dec.) |

Next, values leading:

| melting point | SMILES |
| --- | --- |
| 263 °C (dec.) | O=C(O)CN1C(=O)C(=Cc2ccc(O)c(O)c2O)SC1=S |
| > 240 °C | CC1C(C=C2SC(=S)N(CC(=O)O)C2=O)=CC=C(O)C1(C)O (stereo not drawn) |
| 235 to 236 °C | COc1ccc(C=C2SC(=S)N(CC(=O)O)C2=O)cc1C |
| 192 to 195 °C | CCC1=C(C=CC(C)=CC=CC=C2SC(=S)N(CC(=O)O)C2=O)C(CC)(CC)CCC1 |
| 240 °C | COc1cc(C)c(C=C2SC(=S)N(CC(=O)O)C2=O)cc1C |
| 246 to 248 °C | O=C(O)CCN1C(=O)C(=CC=Cc2cc3ccccc3s2)SC1=S |
| 194 °C (dec.) | COc1cc(O)c(C=C2SC(=S)N(CC(=O)O)C2=O)c(OC)c1 |
| 185 to 190 °C | CCOc1c(C)cc(C=C2SC(=S)N(CC(=O)O)C2=O)c(C)c1OCC |
| 268 to 270 °C | Cc1[nH]c2ccccc2c1C=C1SC(=S)N(CC(=O)O)C1=O |
| 211 to 215 °C | CCOc1cc2cc(C=CC=C3SC(=S)N(CC(=O)OC)C3=O)sc2cc1OCC |
| 193 to 253 °C | CC(=O)Oc1ccc(C=C2SC(=S)N(CC(=O)O)C2=O)cc1OC(C)=O |
| 144 °C (dec.) | CC(C=CC1=C(C)CCCC1(C)C)=CC=CC(C)=CC=C1SC(=S)N(CC(=O)O)C1=O |
| 238 to 240 °C | COc1cc(C=C2SC(=S)N(CC(=O)O)C2=O)cc(OC)c1O |
| 223 to 225 °C | CCN(CC)C(=O)CN1C(=O)C(=Cc2cc(C(C)(C)C)c(O)c(C(C)(C)C)c2)SC1=S |
| 148 to 150 °C | CCCCCCOc1ccccc1C=C1SC(=S)N(CC(=O)O)C1=O |
| 200 °C (dec.) | CC(=O)Oc1cc(C=C2SC(=S)N(CC(=O)O)C2=O)cc(OC(C)=O)c1OC(C)=O |
| 210 °C (dec.) | CCOc1c(C)cc(C=CC=C2SC(=S)N(CC(=O)O)C2=O)c(C)c1OCC |
| 277 to 279 °C | Cc1cc(C=C2SC(=S)N(CC(=O)O)C2=O)cc(C)c1O |
| 193 to 196 °C | COc1cccc(C=C2SC(=S)N(CC(=O)O)C2=O)c1 |
| > 240 °C | CC(C)(C)c1cc(C=CC=C2SC(=S)N(CC(=O)O)C2=O)cc(C(C)(C)C)c1O |
